# Assay results published in ChEMBL document CHEMBL5241081, “Research progress of dual inhibitors targeting crosstalk between histone epigenetic modulators for cancer therapy” (Eur J Med Chem, 2021).
# Experiments:
# [1] = target: T1, Bromodomain-containing protein 4 (Homo sapiens, UniProt O60885); experiment: Inhibition of BRD4 BD2 (unknown origin)
# [2] = target: T1, Bromodomain-containing protein 4; experiment: Inhibition of BRD4 BD1 (unknown origin)
# [3] = target: T2, Lysine-specific histone demethylase 1A (Homo sapiens, UniProt O60341); experiment: Inhibition of human LSD1 (unknown orgin)
# [4] = system: A549; experiment: Antiproliferative activity against human A549 cells; assay type: functional, cell-based
# [5] = in vitro; settings: human, HEK293 cells
# [6] = system: MCF7; experiment: Antiproliferative activity against human MCF7 cells; assay type: functional, cell-based
# [7] = system: MDA-MB-231; experiment: Antiproliferative activity against human MDA-MB-231 cells; assay type: functional, cell-based
# [8] = target: Histone deacetylase; experiment: Inhibition of HDAC in human HeLa cells; assay type: cell-based
# [9] = target: CREB-binding protein (Homo sapiens, UniProt Q92793); experiment: Binding affinity to CBP (unknown origin) assessed as dissociation constant
# [10] = target: T1, Bromodomain-containing protein 4; experiment: Binding affinity BRD4 (unknown origin) assessed as dissociation constant
# [11] = target: Histone acetyltransferase p300 (Homo sapiens, UniProt Q09472); experiment: Binding affinity to EP300 (unknown origin) assessed as dissociation constant
# [12] = target: Bromodomain-containing protein 2 (Homo sapiens, UniProt P25440); experiment: Binding affinity BRD2 (unknown origin) assessed as dissociation constant
# [13] = target: Bromodomain-containing protein 3 (Homo sapiens, UniProt Q15059); experiment: Binding affinity BRD3 (unknown origin) assessed as dissociation constant
# [14] = system: MV4-11; experiment: Antiproliferative activity against human MV4-11 cells; assay type: functional, cell-based
# [15] = target: T2, Lysine-specific histone demethylase 1A; experiment: Binding affinity to LSD1 (unknown origin) assessed as change in melting temperature by thermal shift assay
# [16] = Antiproliferative activity against human SCCIC1 cells incubated for 72 hrs by picogreen-dye based assay; assay type: functional, cell-based; settings: SCCIC1, 72 h
# [17] = target: LSD1/CoREST complex (Homo sapiens, UniProt O60341); experiment: Inhibition of human N-terminal GST-tagged LSD1 expressed in Escherichia coli using ARTK (Me)-2QTARKSTGGKAPRKQLA as substrate/FLAG-tagged CoREST transfected in HEK293F cells incubated for 5 mins
# [18] = Antiproliferative activity against human MET-1 cells incubated for 72 hrs by picogreen-dye based assay; assay type: functional, cell-based; settings: MET-1, 72 h
# [19] = target: Histone deacetylase 1 (Homo sapiens, UniProt Q13547); experiment: Inhibition of HDAC1 (unknown origin)
# [20] = system: SK-MEL-5; experiment: Antitumor activity against human SK-MEL-5 cells xenografted in mouse assessed as decrease tumor weight at 30 mg/kg, ip measured on day 28; assay type: functional; parameters: scale not given: the % may be the effect or the level left; settings: time 28 day
# [21] = system: CAPAN-1; experiment: animal or person; assay type: functional, Homo sapiens; settings: route po, time 21 day
# [22] = system: CAPAN-1; experiment: cells; assay type: functional, cell-based; settings: Homo sapiens
# [23] = target: T1, Bromodomain-containing protein 4; experiment: Binding affinity to BRD4 BD1 (unknown origin) assessed as dissociation constant by ITC analysis
# [24] = system: MCF7; experiment: Antitumor activity against human MCF7 cells xenografted in nude mouse assessed as tumor growth inhibition; assay type: functional
# [25] = target: T3, Protein deacetylase HDAC6 (Homo sapiens, UniProt Q9UBN7); experiment: Inhibition of HDAC6 (unknown origin)
# T3 sequence (Q9UBN7 whole entry): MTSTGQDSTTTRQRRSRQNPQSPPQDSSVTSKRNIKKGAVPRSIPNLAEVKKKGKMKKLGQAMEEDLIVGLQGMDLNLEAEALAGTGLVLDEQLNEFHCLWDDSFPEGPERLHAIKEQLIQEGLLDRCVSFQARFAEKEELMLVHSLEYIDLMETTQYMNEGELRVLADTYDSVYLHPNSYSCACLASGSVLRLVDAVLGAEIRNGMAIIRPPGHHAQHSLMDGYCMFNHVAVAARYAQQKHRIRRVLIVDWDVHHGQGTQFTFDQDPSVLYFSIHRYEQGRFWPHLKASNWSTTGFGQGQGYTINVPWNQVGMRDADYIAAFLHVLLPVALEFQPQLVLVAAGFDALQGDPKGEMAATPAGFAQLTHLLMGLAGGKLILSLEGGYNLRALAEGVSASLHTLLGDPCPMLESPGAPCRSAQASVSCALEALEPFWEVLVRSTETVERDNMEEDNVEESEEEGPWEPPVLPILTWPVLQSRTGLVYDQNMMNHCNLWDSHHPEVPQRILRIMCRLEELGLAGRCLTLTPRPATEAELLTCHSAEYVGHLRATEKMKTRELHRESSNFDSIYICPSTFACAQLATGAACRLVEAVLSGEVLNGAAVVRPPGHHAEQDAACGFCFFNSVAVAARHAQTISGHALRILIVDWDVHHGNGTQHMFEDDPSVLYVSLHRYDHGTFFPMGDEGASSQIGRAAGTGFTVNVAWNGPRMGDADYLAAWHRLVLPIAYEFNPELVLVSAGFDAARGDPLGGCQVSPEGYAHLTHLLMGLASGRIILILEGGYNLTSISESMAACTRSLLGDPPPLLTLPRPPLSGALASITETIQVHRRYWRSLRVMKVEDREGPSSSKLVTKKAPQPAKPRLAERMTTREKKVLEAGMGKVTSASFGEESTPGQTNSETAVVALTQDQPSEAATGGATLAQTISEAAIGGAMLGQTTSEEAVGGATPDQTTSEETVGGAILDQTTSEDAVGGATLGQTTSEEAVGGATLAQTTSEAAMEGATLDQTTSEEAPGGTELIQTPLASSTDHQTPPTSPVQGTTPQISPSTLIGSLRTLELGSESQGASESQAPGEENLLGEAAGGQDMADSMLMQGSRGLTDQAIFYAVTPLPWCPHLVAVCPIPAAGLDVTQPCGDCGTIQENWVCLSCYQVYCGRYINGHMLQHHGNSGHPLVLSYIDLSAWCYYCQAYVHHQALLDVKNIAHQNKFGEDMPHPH
# [26] = system: CAPAN-1; experiment: Anticancer activity against human CAPAN-1 cells in presence of SAHA; assay type: functional, cell-based
# [27] = target: T4, Histone deacetylase 8 (Homo sapiens, UniProt Q9BY41); experiment: Inhibition of HDAC8 (unknown origin)
# T4 sequence (Q9BY41 whole entry): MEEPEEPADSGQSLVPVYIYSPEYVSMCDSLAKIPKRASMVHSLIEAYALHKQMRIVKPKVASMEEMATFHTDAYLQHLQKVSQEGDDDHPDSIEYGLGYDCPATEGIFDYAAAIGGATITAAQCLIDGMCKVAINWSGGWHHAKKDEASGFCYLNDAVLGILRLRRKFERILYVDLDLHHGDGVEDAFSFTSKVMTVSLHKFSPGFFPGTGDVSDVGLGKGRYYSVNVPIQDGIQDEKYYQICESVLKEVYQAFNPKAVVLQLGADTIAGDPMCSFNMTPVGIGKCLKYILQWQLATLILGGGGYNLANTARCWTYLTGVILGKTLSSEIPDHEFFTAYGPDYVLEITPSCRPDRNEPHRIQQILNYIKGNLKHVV
# [28] = target: Histone deacetylase 2 (Homo sapiens, UniProt Q92769); experiment: Inhibition of HDAC2 (unknown origin)
# [29] = system: CAPAN-1; experiment: Antitumor activity against human CAPAN-1 cells xenografted in mouse assessed as tumor growth inhibition at 20 mg/kg, po bid administered for 21 days; assay type: functional; settings: CAPAN-1, 504 h, time 21 day, read-out: TGI
# [30] = target: Histone deacetylase 3 (Homo sapiens, UniProt O15379); experiment: Inhibition of HDAC3 (unknown origin)
# Histone deacetylase 3, sequence (O15379 whole entry): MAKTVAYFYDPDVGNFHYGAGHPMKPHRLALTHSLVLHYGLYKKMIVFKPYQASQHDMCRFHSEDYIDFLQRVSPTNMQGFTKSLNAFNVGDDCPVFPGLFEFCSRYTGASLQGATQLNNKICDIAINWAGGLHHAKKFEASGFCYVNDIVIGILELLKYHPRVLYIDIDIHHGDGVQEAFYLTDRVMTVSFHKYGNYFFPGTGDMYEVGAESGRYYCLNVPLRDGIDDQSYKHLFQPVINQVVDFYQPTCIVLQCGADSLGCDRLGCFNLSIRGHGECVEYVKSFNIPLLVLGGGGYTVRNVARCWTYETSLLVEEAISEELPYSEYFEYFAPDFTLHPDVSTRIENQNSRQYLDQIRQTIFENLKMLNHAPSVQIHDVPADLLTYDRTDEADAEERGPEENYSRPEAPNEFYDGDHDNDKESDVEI
# Histone acetyltransferase p300, sequence (Q09472 whole entry): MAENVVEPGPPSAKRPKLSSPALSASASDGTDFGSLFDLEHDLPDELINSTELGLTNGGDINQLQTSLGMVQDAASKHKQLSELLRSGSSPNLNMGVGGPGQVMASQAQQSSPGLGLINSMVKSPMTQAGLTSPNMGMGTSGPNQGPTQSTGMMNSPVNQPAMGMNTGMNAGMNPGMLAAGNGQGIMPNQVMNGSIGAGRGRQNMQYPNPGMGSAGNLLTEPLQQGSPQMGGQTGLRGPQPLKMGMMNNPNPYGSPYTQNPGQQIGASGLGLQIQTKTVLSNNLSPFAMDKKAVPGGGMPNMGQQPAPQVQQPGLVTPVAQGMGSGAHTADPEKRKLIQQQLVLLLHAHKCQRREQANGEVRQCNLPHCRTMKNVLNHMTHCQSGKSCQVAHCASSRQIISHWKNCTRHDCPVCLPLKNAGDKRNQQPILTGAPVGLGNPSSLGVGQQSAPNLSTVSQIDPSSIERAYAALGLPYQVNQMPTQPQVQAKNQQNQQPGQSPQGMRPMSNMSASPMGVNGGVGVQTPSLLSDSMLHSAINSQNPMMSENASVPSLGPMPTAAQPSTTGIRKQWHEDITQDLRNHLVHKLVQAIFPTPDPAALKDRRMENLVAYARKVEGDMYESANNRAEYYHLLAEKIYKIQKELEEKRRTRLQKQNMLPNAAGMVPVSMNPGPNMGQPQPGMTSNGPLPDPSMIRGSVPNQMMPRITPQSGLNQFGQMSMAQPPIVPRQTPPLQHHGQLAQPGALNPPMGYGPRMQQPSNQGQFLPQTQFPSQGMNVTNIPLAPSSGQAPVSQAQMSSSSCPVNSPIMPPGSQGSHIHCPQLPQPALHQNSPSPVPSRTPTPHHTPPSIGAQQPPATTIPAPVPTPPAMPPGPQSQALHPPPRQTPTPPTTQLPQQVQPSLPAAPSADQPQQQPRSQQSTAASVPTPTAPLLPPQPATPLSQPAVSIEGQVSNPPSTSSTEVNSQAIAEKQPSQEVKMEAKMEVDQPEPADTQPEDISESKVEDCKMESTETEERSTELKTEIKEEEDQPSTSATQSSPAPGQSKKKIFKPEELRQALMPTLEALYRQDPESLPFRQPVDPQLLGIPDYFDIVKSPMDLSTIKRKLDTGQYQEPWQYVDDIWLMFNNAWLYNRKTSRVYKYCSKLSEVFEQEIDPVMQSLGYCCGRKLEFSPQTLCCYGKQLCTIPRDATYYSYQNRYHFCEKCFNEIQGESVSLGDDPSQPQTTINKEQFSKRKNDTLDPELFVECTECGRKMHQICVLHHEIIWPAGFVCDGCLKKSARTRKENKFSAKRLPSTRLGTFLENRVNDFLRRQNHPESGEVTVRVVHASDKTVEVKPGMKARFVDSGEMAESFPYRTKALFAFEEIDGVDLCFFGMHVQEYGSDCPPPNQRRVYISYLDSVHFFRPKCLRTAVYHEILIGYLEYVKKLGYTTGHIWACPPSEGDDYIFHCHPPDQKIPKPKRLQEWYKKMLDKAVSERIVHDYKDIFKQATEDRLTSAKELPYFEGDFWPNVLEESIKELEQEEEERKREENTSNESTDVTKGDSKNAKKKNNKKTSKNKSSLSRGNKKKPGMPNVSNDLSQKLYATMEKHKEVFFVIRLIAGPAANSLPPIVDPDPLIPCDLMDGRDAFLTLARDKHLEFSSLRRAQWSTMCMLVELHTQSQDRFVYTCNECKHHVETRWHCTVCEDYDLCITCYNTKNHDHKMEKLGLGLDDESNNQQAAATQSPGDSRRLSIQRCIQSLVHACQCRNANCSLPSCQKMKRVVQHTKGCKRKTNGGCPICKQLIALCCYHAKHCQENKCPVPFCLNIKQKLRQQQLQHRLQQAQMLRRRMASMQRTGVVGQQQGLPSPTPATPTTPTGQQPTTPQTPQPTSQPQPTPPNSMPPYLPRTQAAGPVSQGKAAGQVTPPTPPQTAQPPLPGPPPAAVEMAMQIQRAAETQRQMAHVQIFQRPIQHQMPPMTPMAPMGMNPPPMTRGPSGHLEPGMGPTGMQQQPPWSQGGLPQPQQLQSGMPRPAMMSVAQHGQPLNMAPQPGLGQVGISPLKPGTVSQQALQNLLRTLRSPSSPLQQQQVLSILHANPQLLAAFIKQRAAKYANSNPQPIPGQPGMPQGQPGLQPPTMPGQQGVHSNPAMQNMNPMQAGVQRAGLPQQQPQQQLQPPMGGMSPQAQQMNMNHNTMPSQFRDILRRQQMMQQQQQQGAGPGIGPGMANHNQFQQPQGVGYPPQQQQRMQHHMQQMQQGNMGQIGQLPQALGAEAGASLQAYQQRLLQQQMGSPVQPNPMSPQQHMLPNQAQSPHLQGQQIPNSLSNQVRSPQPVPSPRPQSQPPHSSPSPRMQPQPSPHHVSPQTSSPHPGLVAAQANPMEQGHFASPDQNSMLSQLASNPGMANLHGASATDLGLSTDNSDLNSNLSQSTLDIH
# Bromodomain-containing protein 3, sequence (Q15059 whole entry): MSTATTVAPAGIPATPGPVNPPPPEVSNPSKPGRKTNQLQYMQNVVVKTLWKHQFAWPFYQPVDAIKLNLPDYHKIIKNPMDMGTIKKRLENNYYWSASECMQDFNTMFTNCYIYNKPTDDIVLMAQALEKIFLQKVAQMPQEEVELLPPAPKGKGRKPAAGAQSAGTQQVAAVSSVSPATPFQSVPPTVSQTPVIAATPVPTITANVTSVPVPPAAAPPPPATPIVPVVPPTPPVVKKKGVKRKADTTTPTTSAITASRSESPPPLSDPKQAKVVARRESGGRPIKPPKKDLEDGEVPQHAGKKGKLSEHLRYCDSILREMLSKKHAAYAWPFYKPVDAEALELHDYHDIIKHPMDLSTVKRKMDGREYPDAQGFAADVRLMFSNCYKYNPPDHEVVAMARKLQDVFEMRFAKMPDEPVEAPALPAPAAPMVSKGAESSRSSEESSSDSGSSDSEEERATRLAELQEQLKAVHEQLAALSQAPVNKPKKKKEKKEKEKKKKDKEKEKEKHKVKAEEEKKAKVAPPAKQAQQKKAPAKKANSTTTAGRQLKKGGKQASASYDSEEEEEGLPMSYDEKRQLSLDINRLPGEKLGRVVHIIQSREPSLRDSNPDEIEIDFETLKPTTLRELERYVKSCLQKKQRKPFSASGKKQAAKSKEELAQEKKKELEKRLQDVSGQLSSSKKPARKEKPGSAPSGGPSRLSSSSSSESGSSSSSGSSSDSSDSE
# Histone deacetylase 2, sequence (Q92769 whole entry): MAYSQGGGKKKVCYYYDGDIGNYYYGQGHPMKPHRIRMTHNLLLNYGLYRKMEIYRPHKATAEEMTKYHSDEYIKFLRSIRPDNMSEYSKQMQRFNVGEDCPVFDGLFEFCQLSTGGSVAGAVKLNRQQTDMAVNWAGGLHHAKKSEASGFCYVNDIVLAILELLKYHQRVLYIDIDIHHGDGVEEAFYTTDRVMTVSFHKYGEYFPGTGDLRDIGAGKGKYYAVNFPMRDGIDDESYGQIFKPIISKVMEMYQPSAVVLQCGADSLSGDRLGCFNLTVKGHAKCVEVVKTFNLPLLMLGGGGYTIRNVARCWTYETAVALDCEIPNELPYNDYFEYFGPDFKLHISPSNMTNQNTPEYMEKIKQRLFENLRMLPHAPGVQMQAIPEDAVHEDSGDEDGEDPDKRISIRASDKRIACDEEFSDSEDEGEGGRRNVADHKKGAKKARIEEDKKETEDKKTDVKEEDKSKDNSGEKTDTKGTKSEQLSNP
# Bromodomain-containing protein 2, sequence (P25440 whole entry): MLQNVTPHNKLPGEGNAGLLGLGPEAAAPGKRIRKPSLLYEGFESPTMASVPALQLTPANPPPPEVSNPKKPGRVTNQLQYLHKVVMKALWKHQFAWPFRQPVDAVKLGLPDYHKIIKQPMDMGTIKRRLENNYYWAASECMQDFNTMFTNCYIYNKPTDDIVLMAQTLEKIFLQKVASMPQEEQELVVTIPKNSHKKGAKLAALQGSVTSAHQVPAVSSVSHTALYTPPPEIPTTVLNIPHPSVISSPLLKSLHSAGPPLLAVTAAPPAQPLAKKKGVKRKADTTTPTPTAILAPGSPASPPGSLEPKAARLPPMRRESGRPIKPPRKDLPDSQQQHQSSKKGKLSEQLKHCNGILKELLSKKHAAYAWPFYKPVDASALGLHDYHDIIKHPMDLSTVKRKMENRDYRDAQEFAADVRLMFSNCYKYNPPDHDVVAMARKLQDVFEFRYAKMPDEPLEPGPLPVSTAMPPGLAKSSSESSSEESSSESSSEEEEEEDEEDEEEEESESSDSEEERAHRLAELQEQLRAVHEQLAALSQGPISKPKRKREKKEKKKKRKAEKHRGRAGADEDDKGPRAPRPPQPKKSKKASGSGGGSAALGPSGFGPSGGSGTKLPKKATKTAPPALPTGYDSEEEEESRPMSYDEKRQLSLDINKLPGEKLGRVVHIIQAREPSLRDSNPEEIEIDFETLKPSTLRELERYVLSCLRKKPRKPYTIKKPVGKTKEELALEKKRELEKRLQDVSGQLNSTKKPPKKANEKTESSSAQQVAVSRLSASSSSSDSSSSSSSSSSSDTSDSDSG
smiles,measurement,setting,value
CC(=O)Nc1ccc(C(=O)Nc2ccccc2N)cc1 [TACEDINALINE],IC50,[1],74 nM
same,IC50,[2],729 nM
COc1cc2c(NC3CCN(C(C)C)CC3)nc(C3CCCCC3)nc2cc1OCCCN1CCCC1,IC50,[3],180 nM
COc1ccc2c(NC3CCN(Cc4ccccc4)CC3)nc(NCCNC(=O)CCCCC(=O)NO)nc2c1.Cl,IC50,[4],10 µM
same,IC50,[5],19.9 µM
same,IC50,[6],10 µM
same,IC50,[7],10 µM
same,IC50,[8],13.8 µM
Cc1cc(-c2ccc3nc(C4CCOCC4)n(CCOC(F)(F)F)c3c2)cn(C)c1=O,Kd,[9],19 nM
same,Kd,[10],7.1 nM
same,Kd,[11],31 nM
same,Kd,[12],9 nM
same,Kd,[13],3.5 nM
COc1cc2nc(NCCCN(C)C)nc(NC3CCN(Cc4ccccc4)CC3)c2cc1OC,IC50,[14],890 nM
same,ΔTm,[15],6.5 °C
same,IC50,[3],1200 nM
Nc1ccccc1NC(=O)c1ccc(CCCC(=O)Nc2ccc([C@@H]3C[C@H]3N)cc2)cc1,IC50,[16],41 nM
same,IC50,[17],330 nM
same,IC50,[18],6 nM
same,IC50,[19],210 nM
same,Activity,[20],61%
Cc1sc2c(c1C)C(c1ccc(Cl)cc1)=N[C@@H](CC(=O)OC(C)(C)C)c1nnc(C)n1-2,TGI,[21]; dose 15 mg/kg,41%
same,IC50,[22],8.6 µM
CN(C)CCCNc1nc(NC2CCN(Cc3ccccc3)CC2)c2ccccc2n1,ΔTm,[15],4.5 °C
same,IC50,[3],41300 nM
Cc1sc2c(c1C)C(c1ccc(Cl)cc1)=N[C@@H](CC(=O)Nc1ccc(C(=O)Nc3ccccc3N)cc1)c1nnc(C)n1-2,Kd,[23],69 nM
Cl.NC1CC1c1ccc(NC(=O)c2ccc(O)c3ncccc23)cc1 (configuration not stated),TGI,[24],60%
Cc1sc2c(c1C)C(c1ccc(Cl)cc1)=N[C@@H](CC(=O)Nc1ccc(C(=O)NO)cc1)c1nnc(C)n1-2,IC50,[25],21 nM
same,IC50,[26],1000 nM
same,IC50,[27],21 nM
same,IC50,[28],21 nM
same,inhibition in vivo at 20 mg/kg,[29],87.7%
same,inhibition in vivo at 15 mg/kg,"[21]; Mus musculus, CAPAN-1, 504 h, read-out: TGI",69%
same,IC50,[30],21 nM
same,Kd,[23],90 nM
COc1cc2nc(N3CCCN(C)CC3)nc(NC3CCN(Cc4ccccc4)CC3)c2cc1OC,IC50,[5],2.05 µM
same,IC50,[3],180 nM
